Data: PMC7129073 (Clinical Microbiology and Infection, 2015)
In brackets after ≈: the same amount, converted by molar mass. Like-named read-outs stand apart in the source and are kept apart here.

How the values were obtained:
[1] = system: MRSA; experiment: Disk diffusion; assay type: cell-based, Staphylococcus aureus; details: 200 isolates
[2] = system: E. faecium; experiment: E-test susceptibility; assay type: cell-based, Enterococcus faecium
[3] = system: viridans group streptococci (VGS); experiment: MIC; assay type: cell-based
[4] = system: S. pneumoniae; assay type: cell-based, Streptococcus pneumoniae
[5] = system: S. aureus 10; experiment: in vitro dynamic model, enrichment of resistant mutants; assay type: cell-based
[6] = system: MRSA; experiment: Agar dilution MIC; assay type: cell-based, Staphylococcus aureus
[7] = system: viridans group streptococci (VgS) and Streptococcus bovis; experiment: Broth microdilution and disk diffusion; assay type: cell-based; details: nine species
[8] = system: agr− group II S. aureus (RN9120); experiment: in vitro pharmacodynamic model, MIC by E-test and microdilution; assay type: cell-based; details: Staphylococcus aureus, read-out: post-exposure MIC
[9] = system: MDR-MRSA; experiment: MIC, MBC; assay type: cell-based, Staphylococcus aureus; details: time kill, two strains
[10] = system: Staphylococci epidermidis; experiment: E-test, classical method and macromethod; assay type: cell-based, Staphylococcus epidermidis; details: four strains: 8, 8, 12, 12; BHI agar, 2.0 McFarland, 48 h
[11] = system: Staphylococcus haemolyticus; experiment: E-test, classical method and macromethod; assay type: cell-based
[12] = system: MSSA; experiment: Agar dilution MIC; assay type: cell-based, Staphylococcus aureus
[13] = system: enterococci; experiment: Disk diffusion and E-test, faecal isolates of cancer patients; assay type: cell-based, Enterococcus; details: 38 strains
[14] = system: CA-MRSA; experiment: MIC, MBC; assay type: cell-based, Staphylococcus aureus; details: time kill, two strains
[15] = system: glycopeptide intermediate Staphylococcus species (GISS); experiment: VITEK II, screening plate and E test, blood isolates; assay type: cell-based, coagulase-negative Staphylococci; details: for MIC: Staphylococcus
[16] = system: agr+ group II S. aureus (RN6607); experiment: in vitro pharmacodynamic model, MIC by E-test and microdilution; assay type: cell-based; details: Staphylococcus aureus, 72 h, read-out: post-exposure MIC
[17] = system: Salmonella, other 49 serotypes; experiment: Disk diffusion, food isolates Spain; assay type: cell-based; details: n = 115
[18] = system: H.influenzae; experiment: PROTEKT Italy, NCCLS microdilution; assay type: cell-based, Haemophilus influenzae
[19] = system: S. pneumoniae; experiment: Broth microdilution; assay type: cell-based, Streptococcus pneumoniae
[20] = system: H. influenzae; experiment: MIC of invasive strains, Saint George Hospital 2001–2004; assay type: cell-based, Haemophilus influenzae; details: n = 129
[21] = system: intestinal Escherichia coli; experiment: ampicillin resistance of intestinal isolates during treatment; set-up: species or system beagles; details: dog, in vivo
[22] = system: E. faecalis; experiment: Italian survey of severe infections 2003, MIC; assay type: cell-based, Enterococcus faecalis
[23] = system: ERSP; experiment: Broth microdilution; assay type: cell-based, Streptococcus pneumoniae; details: Streptococcus pneumoniae
[24] = system: H. influenzae; assay type: cell-based, Haemophilus influenzae
[25] = system: Haemophilus influenzae; experiment: Susceptibility testing; assay type: cell-based; details: conjunctival isolates 2000–2004
[26] = system: M. catarrhalis; experiment: PROTEKT Italy, NCCLS microdilution; assay type: cell-based, Moraxella catarrhalis
[27] = system: E. coli; experiment: Disk diffusion, urine isolates of BPH patients; details: strains isolated after operative intervention
[28] = system: Shigella spp.; experiment: Disk diffusion, stool isolates Tehran; assay type: cell-based; details: 96 isolates
[29] = system: Escherichia coli O157:H7; experiment: Kirby-Bauer susceptibility; assay type: cell-based; details: 30 strains, 1990–2003
[30] = system: Salmonella serotype Typhimurium; experiment: Disk diffusion, food isolates Spain; assay type: cell-based; details: n = 53
[31] = system: H.influenzae; experiment: Broth microdilution; assay type: cell-based, Haemophilus influenzae
[32] = system: Salmonella serotype Enteritidis; experiment: Disk diffusion, food isolates Spain; assay type: cell-based; details: n = 96
[33] = system: H. influenzae; experiment: Disk diffusion, sputum isolates Athens 2001–2004; assay type: cell-based, Haemophilus influenzae
[34] = system: Pseudomonas putida clinical isolates; experiment: Agar dilution MIC; assay type: cell-based
[35] = system: Salmonella spp.; experiment: Agar dilution susceptibility, gastroenteritis isolates Cuba; assay type: cell-based; details: 34 strains, 2002
[36] = system: Staphylococcus aureus; experiment: Susceptibility testing; assay type: cell-based; details: conjunctival isolates 2000–2004
[37] = system: H. influenzae; experiment: Broth microdilution; assay type: cell-based, Haemophilus influenzae; details: 267 isolates
[38] = system: PRSP; experiment: Broth microdilution; assay type: cell-based, Streptococcus pneumoniae
[39] = system: Escherichia coli; experiment: Vitek 2 susceptibility, urine isolates of children; assay type: cell-based
[40] = system: Moraxella spp.; experiment: Disk diffusion; assay type: cell-based; details: 35 isolates
[41] = system: Staphylococcus coagulase negative (CNS); experiment: Susceptibility testing; assay type: cell-based; details: conjunctival isolates 2000–2004
[42] = system: H. influenzae; experiment: Disk diffusion; assay type: cell-based, Haemophilus influenzae; details: 237 isolates
[43] = system: C. jejuni ATCC 33560; experiment: VetMIC broth microdilution, QC strain; assay type: cell-based; details: Campylobacter jejuni, ATCC33560, read-out: QC limits (MIC)
[44] = system: E. faecalis; experiment: E-test susceptibility; assay type: cell-based, Enterococcus faecalis
[45] = system: Streptococcus pneumoniae (SPN); experiment: MIC; assay type: cell-based; details: 8378 isolates
[46] = system: C. pneumoniae target genes (LcrD, YscL, YscN, IncA, IncC, TyrB, GlyA); experiment: Chlamydial gene expression; assay type: cell-based, Chlamydia pneumoniae; details: moxifloxacin 3.1 μg/ml, clarithromycin 2 μg/ml; peaking at 120 h
[47] = system: Nocardia spp.; experiment: E-test on Mueller Hinton agar, 81 clinical isolates; assay type: cell-based; details: Nocardia
[48] = system: H. influenzae (HI); experiment: SENTRY Brazil, NCCLS broth microdilution; assay type: cell-based, Haemophilus influenzae
[49] = Mediterranean spotted fever, randomised therapeutic study; assay type: in vivo, human
[50] = system: Streptococcus pyogenes (SPY); experiment: MIC; assay type: cell-based; details: 2522 isolates
[51] = system: Moraxella catarrhalis (MC); experiment: MIC; assay type: cell-based; details: 2497 isolates
[52] = system: S. maltophilia; experiment: Susceptibility of respiratory isolates of cancer patients; assay type: cell-based, Stenotrophomonas maltophilia; details: 40 patients
[53] = system: Stenotrophomonas maltophilia; experiment: E-test, sputum isolates of children with cystic fibrosis; assay type: cell-based; details: 2000–2004
[54] = system: Acinetobacter; experiment: Disk diffusion; assay type: cell-based; details: 37 isolates selected as resistant to beta-lactams
[55] = system: S. aureus; experiment: E-test susceptibility; assay type: cell-based, Staphylococcus aureus
[56] = system: foreign body infection Staphylococcus epidermidis strains; experiment: NCCLS disk diffusion; assay type: cell-based; details: 86 strains
[57] = system: S. aureus; experiment: susceptibility of bloodstream isolates; assay type: cell-based
[58] = NCCLS breakpoints (Amox/Clav 2/1 mcg/mL)

With `CN[C@H](CC(C)C)C(=O)N[C@H]1C(=O)N[C@@H](CC(N)=O)C(=O)N[C@H]2C(=O)N[C@H]3C(=O)N[C@H](C(=O)N[C@H](C(=O)O)c4cc(O)cc(O)c4-c4cc3ccc4O)[C@H](O)c3ccc(c(Cl)c3)Oc3cc2cc(c3O[C@@H]2O[C@H](CO)[C@@H](O)[C@H](O)[C@H]2O[C@H]2C[C@](C)(N)[C@H](O)[C@H](C)O2)Oc2ccc(cc2Cl)[C@H]1O` [vancomycin] the sensitivity [1] was “All isolates were sensitive”, the Susceptibility ([2]; ICU) was 93% and the Susceptibility ([2]; non-ICU) was 98%. For the same compound, the “% isolates resistant (VRE)” value ([2]; total) was 4%, the MIC50 [3] was 0.5 µg/mL (≈ 0.345 µM) and the MIC90 [3] was 1 µg/mL (≈ 0.69 µM). For the same compound, the tolerant isolates ([3]; 83 isolates, tolerance to VA and TP) was 77.6%, the “susceptibility of all isolates” value ([3]; NCCLS) was “All isolates were susceptible” and the resistant [4] was 0%. For the same compound, the “AUC/MIC predicted to protect from selection of resistant mutants” value [5] was 256 h, the “AUC/MIC at which resistant mutants were selected” value ([5]; five-day treatment) was 32 to 128 h and the MIC50 ([6]; Staphylococcus aureus, MRSA) was under 1 µg/mL. For the same compound, the MIC90 ([6]; Staphylococcus aureus, MRSA) was under 1 µg/mL, the MIC range ([6]; n = 50) was 1 µg/mL (≈ 0.69 µM) and the “% S, range between species” value [7] was 100.0%. For the same compound, the MIC [8] was 6 µg/mL (≈ 4.14 µM), the “Δ Log10 CFU/ml” value [9] was −3.97 Log10 CFU/ml and the “MIC, macromethod of E-test” value [10] was 12 µg/mL. For the same compound, the MIC ([11]; read-out: MIC, classical E-test) was 3 µg/mL (≈ 2.07 µM), the MIC ([11]; read-out: MIC, macromethod of E-test) was 32 µg/mL (≈ 22.1 µM) and the MIC50 ([12]; Staphylococcus aureus, MSSA) was under 0.5 µg/mL. The MIC90 ([12]; Staphylococcus aureus, MSSA) was under 1 µg/mL, the MIC range ([12]; n = 200) was 0.5 to 1 µg/mL (≈ 0.345 to 0.69 µM) and the “sensitivity of all isolated strains” value [13] was “All the isolated strains were sensitive”. For the same compound, the “Δ Log10 CFU/ml” value [14] was −3.78 Log10 CFU/ml, the MIC ([15]; read-out: MIC of intermediate sensitive strains) was 8 to 12 µg/mL and the MIC ([15]; read-out: MIC of resistant strain) was 32 µg/mL. The MIC [16] was at most 2 µg/mL.
For `CC1(C)S[C@@H]2[C@H](NC(=O)[C@H](N)c3ccccc3)C(=O)N2[C@H]1C(=O)O` [ampicillin], the “resistance rate (NCCLS M100-S13)” value [17] was 14%, the resistance ([18]; year 1) was 26.5% and the resistance ([18]; year 2) was 20.6%. For the same compound, the “%Sus” value [19, 58] was 0.0%, the MIC90 ([19]; Streptococcus pneumoniae) was 4 µg/mL (≈ 11.4 µM) and the resistant isolates [20] was 60%. The “proportion of ampicillin-resistant isolates during treatment” value [21] was 98%, the resistance [22] was 0.4% and the MIC90 [23] was 8 µg/mL (≈ 22.9 µM). It also gave a resistant [24] of 4.7%, a resistant isolates [25] of 9.5% and a susceptibility rate ([26]; year 1) of 22.7%. It also gave a susceptibility rate ([26]; year 2) of 18.9%, a resistance [27] of 93.1% and a resistance [28] of 100%. For the same compound, the resistant strains [29] was 13.3%, the “resistance rate (NCCLS M100-S13)” value [30] was 62% and the MIC90 ([31]; Haemophilus influenzae) was over 16 µg/mL. The “%Sus” value ([31]; NCCLS) was 74.6%, the “resistance rate (NCCLS M100-S13)” value [32] was 8% and the resistance rate ([33]; 2001–2002) was 10.9%. For the same compound, the resistance rate ([33]; 2003–2004) was 23.1%, the MIC [34] was over 128 µg/mL and the resistance [35] was 44%. The resistant isolates [36] was 66.6%, the resistant [37] was 5.2% and the “%Sus” value [38, 58] was 0.0%. The MIC90 ([38]; Streptococcus pneumoniae, PRSP) was 8 µg/mL (≈ 22.9 µM), the susceptibility rate ([39]; paediatric surgical unit (PSU)) was 15% and the susceptibility rate ([39]; paediatric units (PU)) was 54%. The Susceptible isolates [40] was 49%, the resistant isolates [40] was 51% and the resistant isolates [41] was 79.5%. It also gave a resistant strains ([13]; gentamycin: high level) of 50%, a Susceptible isolates [42] of 92% and an MIC [43] of 2 to 8 µg/mL (≈ 5.72 to 22.9 µM). The Susceptibility ([44]; ICU, SRGA breakpoints, tigecycline tentative ≤2 μg/ml) was 99/99% and the Susceptibility ([44]; non-ICU) was 99/99%.
`CC[C@H]1OC(=O)[C@H](C)[C@@H](O[C@H]2C[C@@](C)(OC)[C@@H](O)[C@H](C)O2)[C@H](C)[C@@H](O[C@@H]2O[C@H](C)C[C@H](N(C)C)[C@H]2O)[C@](C)(OC)C[C@@H](C)C(=O)[C@H](C)[C@@H](O)[C@]1(C)O` [clarithromycin] showed a resistance ([18]; year 1) of 36.9%, a resistance ([18]; year 2) of 25.7% and an MIC90 [45] of 0.5 ig/ml. For the same compound, the “upregulation of mRNA of all target genes” value [46] was “less prominent”, the MIC50 [47] was 8 µg/mL (≈ 10.7 µM) and the MIC90 [47] was 96 µg/mL (≈ 128 µM). The “% S” value [48]; 1998 was 90%, the “% S” value [48]; 1999 was 100% and the “% S” value [48]; 2000 was 92%. For the same compound, the “% S” value [48]; 2001 was 91%, the “% S” value [48]; 2002 was 90% and the “% S” value [48]; 2003 was 94%. The “adverse reactions or relapses” value ([49]; either group) was “no adverse reactions”, the “time for disappearance of the fever after treatment” value ([49]; group A n=14, group B n=20) was 2.57 ± 1.7 days and the “time to disappearance of symptoms” value ([49]; group A n=14, group B n=20) was 4.35 ± 2.5 days. The MIC90 [50] was 0.12 ig/ml and the MIC90 [51] was 0.5 ig/ml.
With ticarcillin/clavulanic acid the Susceptible isolates [52] was 65%, the sensitivity [53] was 59.3% and the resistant isolates [54] was 32.4%.
In the case of `Cc1onc(-c2ccccc2)c1C(=O)N[C@@H]1C(=O)N2[C@@H]1SC(C)(C)[C@@H]2C(=O)O` [oxacillin], the Susceptibility ([55]; ICU, SRGA breakpoints, tigecycline tentative S ≤2 μg/ml) is reported as 97%, the Susceptibility ([55]; non-ICU) is reported as 98% and the “% isolates resistant” value ([55]; total) is reported as 2%. The “% resistant” value [56] was “More than 30%”, the resistance [57] was 43% and the sensitive strains ([15]; six out of 73) was 8,2%.
